From ChEMBL document CHEMBL1142900, “Biological profile of new apoptotic agents based on 2,4-pyrido[2,3-d]pyrimidine derivatives” (Bioorg Med Chem, 2007)
The source made the active and inactive calls. No cut-off for these calls is given here.

How the values were obtained:
[1] = test system: HT-29; experiment: Cell cycle arrest in HT29 cells by accumulation at subG1 phase after 24 hrs; format: functional, Homo sapiens
[2] = test system: T-24; experiment: Effect on apoptosis in T24 cells assessed as increase in caspase 3 activation after 14 hrs relative to control by flow cytometry; format: functional, cell-based; conditions: Homo sapiens
[3] = test system: T-24; experiment: Cell cycle arrest in T24 cells by accumulation at S phase at 5 uM after 10 hrs; format: functional, Homo sapiens
[4] = test system: HT-29; experiment: Cell cycle arrest in HT29 cells by accumulation at G2 phase at 8.9 uM after 10 hrs; format: functional, Homo sapiens
[5] = test system: HT-29; experiment: Effect on apoptosis in HT29 cells assessed as increase in caspase 3 activation after 14 hrs relative to control by flow cytometry; format: functional, cell-based; conditions: Homo sapiens
[6] = test system: T-24; experiment: Effect on apoptosis in T24 cells assessed as increase in caspase 3 activation after 48 hrs relative to control by flow cytometry; format: functional, cell-based; conditions: Homo sapiens
[7] = test system: T-24; experiment: Cell cycle arrest in T24 cells by accumulation at G1 phase after 24 hrs; format: functional, Homo sapiens
[8] = test system: HT-29; experiment: Cell cycle arrest in HT29 cells by accumulation at G2/M phase after 24 hrs at 0.89 uM; format: functional, Homo sapiens
[9] = test system: T-24; experiment: Cell cycle arrest in T24 cells by accumulation at G2 phase at 5 uM after 10 hrs; format: functional, Homo sapiens
[10] = test system: MDA-MB-231; experiment: Increase in cell death of MDA-MB-231 cells; format: functional, cell-based; conditions: Homo sapiens, TDE = time-dependent effect
[11] = test system: HT-29; experiment: Cell cycle arrest in HT29 cells by accumulation at G1 phase at 8.9 uM after 10 hrs; format: functional, Homo sapiens
[12] = test system: T-24; experiment: Cell cycle arrest in T24 cells by accumulation at G2 phase at 5 uM after 12 hrs; format: functional, Homo sapiens
[13] = test system: T-24; experiment: Cell cycle arrest in T24 cells by accumulation at S phase after 24 hrs; format: functional, Homo sapiens
[14] = Cytotoxicity against CRL8799 cells; format: cell-based; conditions: human
[15] = Growth inhibition of human HTB26 cells by neutral red assay; format: functional, cell-based
[16] = test system: T-24; experiment: Cell cycle arrest in T24 cells by accumulation at G2/M phase after 24 hrs at 0.6 uM; format: functional, Homo sapiens
[17] = test system: T-24; experiment: Cell cycle arrest in T24 cells by accumulation at S phase at 5 uM after 8 hrs; format: functional, Homo sapiens
[18] = test system: T-24; experiment: Cell cycle arrest in T24 cells by accumulation at G1 phase at 5 uM after 12 hrs; format: functional, Homo sapiens
[19] = test system: T-24; experiment: Cell cycle arrest in T24 cells by accumulation at G1 phase at 5 uM after 8 hrs; format: functional, Homo sapiens
[20] = test system: T-24; experiment: Cell cycle arrest in T24 cells by accumulation at subG1 phase at 5 uM after 12 hrs; format: functional, Homo sapiens
[21] = test system: HT-29; experiment: Effect on apoptosis in HT29 cells assessed as DNA fragmentation after 8 hrs; format: functional, cell-based; conditions: Homo sapiens
[22] = test system: T-24; experiment: Increase in cell death of T24 cells; format: functional, cell-based; conditions: Homo sapiens, TDE = time-dependent effect
[23] = test system: T-24; experiment: Effect on apoptosis in T24 cells assessed as increase in caspase 3 activation after 24 hrs relative to control by flow cytometry; format: functional, cell-based; conditions: Homo sapiens
[24] = target: T1, Caspase-3 (Homo sapiens) (UniProt P42574); experiment: Effect on MDA-MB-231 cell lysate caspase 3 activity after 48 hrs relative to control by substrate assay; format: cell-based
T1 sequence (whole entry): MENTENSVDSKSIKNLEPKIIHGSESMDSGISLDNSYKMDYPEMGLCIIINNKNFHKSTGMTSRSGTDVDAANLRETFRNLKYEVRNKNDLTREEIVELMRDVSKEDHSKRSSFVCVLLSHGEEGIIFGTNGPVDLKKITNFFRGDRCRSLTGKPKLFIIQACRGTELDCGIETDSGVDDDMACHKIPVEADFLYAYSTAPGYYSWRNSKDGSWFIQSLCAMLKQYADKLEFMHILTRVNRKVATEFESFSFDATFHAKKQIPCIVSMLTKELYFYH

[25] = test system: HT-29; experiment: Cell cycle arrest in HT29 cells by accumulation at G1 phase after 24 hrs; format: functional, Homo sapiens
[26] = test system: HT-29; experiment: Effect on apoptosis in HT29 cells assessed as increase in caspase 3 activation after 24 hrs relative to control by flow cytometry; format: functional, cell-based; conditions: Homo sapiens
[27] = test system: HT-29; experiment: Cell cycle arrest in HT29 cells by accumulation at G1 phase at 8.9 uM after 8 hrs; format: functional, Homo sapiens
[28] = test system: HT-29; experiment: Increase in cell death of HT29 cells; format: functional, cell-based; conditions: Homo sapiens, TDE = time-dependent effect
[29] = target: T1, Caspase-3 (Homo sapiens); experiment: Effect on MDA-MB-231 cell lysate caspase 3 activity after 24 hrs relative to control by substrate assay; format: cell-based
[30] = test system: T-24; experiment: Cell cycle arrest in T24 cells by accumulation at subG1 phase at 5 uM after 8 hrs; format: functional, Homo sapiens
[31] = test system: T-24; experiment: Cell cycle arrest in T24 cells by accumulation at G1 phase at 5 uM after 10 hrs; format: functional, Homo sapiens
[32] = test system: HT-29; experiment: Effect on apoptosis in HT29 cells assessed as increase in caspase 3 activation after 48 hrs relative to control by flow cytometry; format: functional, cell-based; conditions: Homo sapiens
[33] = test system: T-24; experiment: Cell cycle arrest in T24 cells by accumulation at G2 phase at 5 uM after 8 hrs; format: functional, Homo sapiens
[34] = test system: T-24; experiment: Cell cycle arrest in T24 cells by accumulation at subG1 phase after 24 hrs; format: functional, Homo sapiens
[35] = test system: HT-29; experiment: Cell cycle arrest in HT29 cells by accumulation at subG1 phase at 8.9 uM after 10 hrs; format: functional, Homo sapiens
[36] = target: T1, Caspase-3 (Homo sapiens); experiment: Effect on MDA-MB-231 cell lysate caspase 3 activity after 14 hrs relative to control by substrate assay; format: cell-based
[37] = test system: HT-29; experiment: Cell cycle arrest in HT29 cells by accumulation at S phase at 8.9 uM after 8 hrs; format: functional, Homo sapiens
[38] = test system: HT-29; experiment: Cell cycle arrest in HT29 cells by accumulation at S phase after 24 hrs; format: functional, Homo sapiens
[39] = test system: HT-29; experiment: Cell cycle arrest in HT29 cells by accumulation at G1 phase at 8.9 uM after 12 hrs; format: functional, Homo sapiens
[40] = test system: T-24; experiment: Cell cycle arrest in T24 cells by accumulation at S phase at 5 uM after 12 hrs; format: functional, Homo sapiens
[41] = test system: HT-29; experiment: Cell cycle arrest in HT29 cells by accumulation at S phase at 8.9 uM after 12 hrs; format: functional, Homo sapiens
[42] = test system: T-24; experiment: Effect on apoptosis in T24 cells assessed as DNA fragmentation after 8 hrs; format: functional, cell-based; conditions: Homo sapiens
[43] = Cytotoxicity against CRL11233 cells; format: cell-based; conditions: human
[44] = test system: T-24; experiment: Cell cycle arrest in T24 cells by accumulation at subG1 phase at 5 uM after 10 hrs; format: functional, Homo sapiens
[45] = test system: HT-29; experiment: Cell cycle arrest in HT29 cells by accumulation at G2 phase at 8.9 uM after 12 hrs; format: functional, Homo sapiens
[46] = test system: T-24; experiment: Growth inhibition of human T24 cells by neutral red assay; format: functional, cell-based
[47] = test system: HT-29; experiment: Cell cycle arrest in HT29 cells by accumulation at G2 phase at 8.9 uM after 8 hrs; format: functional, Homo sapiens
[48] = test system: HT-29; experiment: Growth inhibition of human HT29 cells by neutral red assay; format: functional, cell-based
[49] = test system: HT-29; experiment: Cell cycle arrest in HT29 cells by accumulation at subG1 phase at 8.9 uM after 12 hrs; format: functional, Homo sapiens
[50] = test system: HT-29; experiment: Cell cycle arrest in HT29 cells by accumulation at S phase at 8.9 uM after 10 hrs; format: functional, Homo sapiens
[51] = test system: HT-29; experiment: Cell cycle arrest in HT29 cells by accumulation at subG1 phase at 8.9 uM after 8 hrs; format: functional, Homo sapiens
[52] = test system: MDA-MB-231; experiment: Growth inhibition of human MDA-MB-231 cells by neutral red assay; format: functional, cell-based

For `COc1ccc(CNc2nc(NCc3ccc(OC)cc3)c3cccnc3n2)cc1`, the Activity [1] was 7%, the Activity [2] was “Active” and the Activity [3] was 13%. The Activity [4] was 36%, the Activity [5] was “Active” and the Activity [6] was “Active”. It also gave an Activity [7] of 42%, an Activity [8] of 52% and an Activity [9] of 40%. For the same molecule, the Activity [10] was “tde”, the Activity [11] was 22% and the Activity [12] was 36%. For the same molecule, the Activity [13] was 13%, the Activity [14] was “Non-toxic” and the IC50 [15] was 1500 nM. For the same molecule, the Activity [16] was 38%, the Activity [17] was 13% and the Activity [18] was 26%. The Activity [19] was 36%, the Activity [20] was 28% and the Activity [21] was “Active”. The Activity [22] was “tde”, the Activity [23] was “Active” and the Activity [24] was “inactive”. The Activity [25] was 30%, the Activity [26] was “Active” and the Activity [27] was 35%. The Activity [28] was “tde”, the Activity [29] was “inactive” and the Activity [30] was 7%. The Activity [31] was 28%, the Activity [32] was “Active” and the Activity [33] was 43%. For the same molecule, the Activity [34] was 6%, the Activity [35] was 25% and the Activity [36] was “inactive”. For the same molecule, the Activity [37] was 19%, the Activity [38] was 11% and the Activity [39] was 17%. The Activity [40] was 10%, the Activity [41] was 17% and the Activity [42] was “Active”. The Activity [43] was “Non-toxic”, the Activity [44] was 18% and the Activity [45] was 33%. For the same molecule, the IC50 [46] was 5000 nM, the Activity [47] was 38% and the IC50 [48] was 8900 nM. For the same molecule, the Activity [49] was 34%, the Activity [50] was 17% and the Activity [51] was 8%.

`CCC1(O)C(=O)OCc2c1cc1n(c2=O)Cc2cc3ccccc3nc2-1` (single isomer, unassigned) [CAMPTOTHECIN] showed an IC50 [52] of 291 nM, an IC50 [46] of 6 nM and an IC50 [48] of 14 nM.
